Measured values published in patent EP2444396A1, “PHOTOPROTECTIVE COMPOSITION” (Apoteknos Para La Piel, S.L., priority 2009, dated 2010).
“And” between values parts separate entries of the source, which are not always exact repeats. Identical values can stand only once.

Columns and labels:
[1] = Absorption spectrum in methanol (195 - 400 nm); assay type: physicochemical; conditions: peak wavelength, 10 mg/ml
Experimental: In order to determine the absorption spectrum, a solution of 10 mg/ml of methanol was prepared from each of the substances. The methanol in turn was used to adjust the zero absorbance in each of the wavelengths in the range of 195 - 400 nm.

[2] = Photostability evaluation (irradiation in MeOH, TLC analysis); assay type: physicochemical; conditions: MeOH, irradiated for 2 hours, 450W lamp; approximate estimation of the total sum of photoproducts
Experimental: All the irradiations preformed in the photostability studies were carried out in an ACE 7840 photoreactor using a 450W power ACE 7825 lamp.
The solvent used in the photostability test was methanol [MeOH] (ppa) (250 mL), using a concentration of […] of p-nitrolophine. The solution was irradiated for 2 hours, samples being taken at 10 minutes, 20 minutes, 1 hour and 2 hours, and being dried in a rotating evaporator. Each sample was analyzed by thin layer chromatography (TLC in Silica gel) using petroleum ether:ethyl acetate (4:1) as eluent. The chromatography plates were viewed under a 254 nm lamp and a 366 nm lamp, as well as by means of simultaneous viewing under both lamps (254 and 366 nm).
Specifically, three photoproducts (three blots) could be determined, which were isolated by preparative TLC.
A saturated solution of m-nitrolophine in MeOH was prepared to perform the study since the solubility in this solvent is low (approximately 0.2 mg/mL). Briefly, an amount of m-nitrolophine sufficient to ensure the saturation in 200 mL of MeOH throughout the night was left stirring. The solution was filtered and irradiated for 2 hours, samples of 10 mL being taken at 10 minutes, 20 minutes, 1 hour and 2 hours, and being dried in rotating evaporator. […]

[3] = target: T1, estrogen receptor alpha (ERα) (Homo sapiens, UniProt P03372); test: Estrogenicity reporter gene bioassay (luciferase activity) in MELN cells; assay type: cell-based
T1 construct: which endogenously express the estrogen receptor alpha (ERα); endogenous in cells; host or cells: MELN (MCF-7 stably transfected with ERE-βGlob-Luc-SV-Neo)
T1 sequence (P03372 1-595): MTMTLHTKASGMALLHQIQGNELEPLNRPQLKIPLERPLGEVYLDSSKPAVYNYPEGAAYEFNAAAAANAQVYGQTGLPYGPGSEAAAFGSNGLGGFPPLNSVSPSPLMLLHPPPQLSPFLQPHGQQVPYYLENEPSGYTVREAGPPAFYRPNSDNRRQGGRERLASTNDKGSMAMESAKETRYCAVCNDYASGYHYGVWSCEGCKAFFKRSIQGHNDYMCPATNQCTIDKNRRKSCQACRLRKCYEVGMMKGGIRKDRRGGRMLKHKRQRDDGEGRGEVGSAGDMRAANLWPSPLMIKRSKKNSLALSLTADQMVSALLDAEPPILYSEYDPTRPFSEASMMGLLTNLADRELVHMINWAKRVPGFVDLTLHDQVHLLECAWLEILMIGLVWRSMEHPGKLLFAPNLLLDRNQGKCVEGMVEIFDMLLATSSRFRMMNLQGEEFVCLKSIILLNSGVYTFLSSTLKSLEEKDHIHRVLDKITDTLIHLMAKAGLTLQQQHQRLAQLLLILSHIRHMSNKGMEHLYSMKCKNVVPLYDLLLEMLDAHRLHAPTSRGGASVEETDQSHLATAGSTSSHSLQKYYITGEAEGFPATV
Excerpt: Briefly, the transactivation bioassay (Reporter gene assay) used are based on the use of breast and uterine cancer cell lines transfected with different native or modified hormone receptors. The resulting cell lines further contain a reporter gene regulated by estrogens through the estrogen response element, the globin promoter and the luciferase gene.
MELN cells were obtained by means of transfecting the MCF-7 breast cancer cell line [which endogenously express the estrogen receptor alpha (ERα)] with an estrogen sensitive response element (ERE-βGlob-Luc-SV-Neo). The selection of clones resistant to geneticin was performed using a concentration of 1 mg/mL. The maintenance medium for this cell line is DMEM F12 (Dulbecco's modified Eagle medium) with phenol red supplemented with 10% FBS, 1% of penicillin/streptomycin and 1 mg/mL of geneticin. Due to the estrogenic activity of the phenol red and FBS, the experiments are preformed in medium known as experimental medium, i.e., a culture medium without phenol red and with FBS lacking of estrogens. The experimental medium for this line is DMEM without phenol red supplemented with 3% of FBS treated with carbon-dextran.
The cells were seeded at a density of 5x10^4 cells per well in white opaque 96 well plates in 150 µL of experimental medium. After 8 hours, the compounds to be assayed (p-nitrolophine and estradiol) were prepared (concentrated 4x) in the same medium and were added to each well (50 µl). The cells were incubated for 16 hours at 37°C. At the end of the incubation, the medium was removed and replaced with fresh medium containing […] luciferin [at that concentration, luciferin diffuses into cell producing a luminescent signal which is stable after 5 minutes and for at least 2 hours]. The plates were then introduced in the luminometer to measure the luminescence for 2 seconds. A YicroBeta Trilux luminometer (EGG Wallac) apparatus was used to detect luciferase activity.
The assays were preformed in quadruple for each concentration (0.01-10 µM) in at least three independent experiments. […] The values of luciferase activity obtained were analyzed using the one-way ANOVA statistic test. The differences were considered significant when P was less than […] (P < 0.05).

[4] = UV spectrum: wavelengths of maximum absorption and absorbance (Cecil 2021 UV-Visible Spectrophotometer); assay type: physicochemical

O=[N+]([O-])c1ccc(-c2nc(-c3ccccc3)c(-c3ccccc3)[nH]2)cc1 [p-nitrolophine, 2-(4-nitrophenyl)-4,5-diphenyl-1H-imidazole]
maximum absorption [1]: 379 nm | degradation [2]: lower than 5% | activity at 0.01 µM [3]: 15.2 ± 0.6% | activity at 0.03 µM [3]: 15.3 ± 0.5% | activity at 0.1 µM [3]: 15.6 ± 0.3% | activity at 0.3 µM [3]: 15.5 ± 0.9% | activity at 1 µM [3]: 16 ± 0.4% | activity at 3 µM [3]: 15.2 ± 0.4% | activity at 10 µM [3]: 15.6 ± 0.9% | estrogenicity ([3]; MELN cells, up to 10 µM, conclusion in words): not an estrogenic compound | UV spectrum A (a.u) ([4]; absorbance at the maximum of the same line): 0.715 a.u and 0.669 a.u and 0.774 a.u | UV spectrum λ (nm) ([4]; wavelengths of the maximum absorption): 221.0 nm and 255.0 nm and 379.0 nm
